Test results as given in US10351501B2, “Gem difluorocompounds as depigmenting or lightening agents” (TFCHEM, priority 2015, dated 2019).

Columns and labels:
[1] = In vitro human skin absorption, Franz diffusion cell: quantification in the receptor fluid (flux); assay type: in vitro ADME; conditions: human, 2 mg/ml
Source text: The aim of this study was to evaluate the absorption of compound 11 applied to excised human skin.
In vitro method using a Franz diffusion cell allows measuring the diffusion of chemicals into and across skin.
The tested compound is applied to the surface of a human skin explant separating the two chambers of a Franz diffusion cell. The compound remains on the skin for a specified time under specified conditions. The receptor fluid is sampled at time points throughout the experiment and analyzed for the tested compound. The skin may also be fractioned for separate analysis in epidermis or dermis layers.
The transcutaneous absorption was measured on human skin collected from the abdominoplasty of a single donor. At reception, the skin was defatted and cut in several fragments in order to perform Franz experiment. […]
The tested compounds were quantified, at T0 h and T24 h in the receptor solution bathing the inner surface of the skin (determination of flux), or at T24 h in the fractionated skin extracts (epidermis or dermis). […]
Sampling: 500 μL from the receptor fluid were removed at T0 h (replaced by Ringer solution) and at T24 h. These samples were analyzed by LC-MS/MS method for quantification of compound 11 and deoxyarbutin (results not shown). The quantity measured allowed to calculate a flux and to compare the absorption profile across the skin of compound 11 and deoxyarbutin.

[2] = In vitro stability: hydroquinone released in various chemical conditions (HPLC-UV/DAD); assay type: physicochemical
Experimental: The stability of compound 11 was evaluated by the released of hydroquinone, which is a potentially toxic compound, in different chemical conditions (extreme conditions, simulating the application of these molecules on the skin) and it was compared to the deoxyarbutin.
This study involved different tests as degradation test and chemical stability (various chemical solutions, pH and temperatures).
Analytical Method (HPLC-UV/DAD Method)
Column Atlantis dC18 150 mm*4.6 mm*3 μm Waters, 30° C. Injection 50 μl, 25° C. λ: 220 nm, 265 nm, 285 nm. A-Acetonitrile B-Water; 0.8 ml/min; elution gradient: […]
This analytical method gave linear response for compound 11, Deoxyarbutin and Hydroquinone from 25 ng/mL to 1000 ng/mL. Dilution of samples had to be taken into account for each stability study to calculate the LLOQ of each compound.
The tested compounds are incubated in different solutions, at different times (see table 1). Then the analytical method was used to quantify remaining compounds and potential hydroquinone released (as possible degradation of compounds).
Hydroquinone (HQ) apparition is expressed as a percentage of initial compound 11 or Deoxyarbutin. The calculation was done in molar units and the limit of quantification fluctuates with the initial concentration.

human tyrosinase = assay: HumanLike Tyrosinase Assay kit (Feldan), L-Tyrosine to dopachrome, OD at 490 nm; assay type: biochemical; conditions: for OD at 490 nm: 1.12 mM
Experimental: The efficacy of compound 16 was evaluated by the inhibition of human tyrosinase in tubo and compared to the compound 11.
The assay was performed with a ready-to-use kit from Feldan Inc (Canada): the HumanLike Tyrosinase Assay kit (ref A021-a-001Kit).
The protocol was performed as described in the instructions for use of the manufacturer. Briefly, this kit is intended for the determination of human tyrosinase activity in presence of different inhibitors. The kit measures the conversion of L-Tyrosine into a dopachrome complex absorbing at 490 nm. The time course of the assay is 20 minutes, after which the results are analyzed and compared.
The compounds 11 and 16 have been tested at a final concentration of 1.12 mM.
The measured absorbances at 490 nm are reported in the table 5 and plotted in function of time in the FIG. 1.
Moreover for each compound the efficacy as tyrosinase inhibitor was calculated using the following formula: […]

Flux, mean (n = 3) [1]: 2.71 μg/h/cm^2
% Hydroquinone released ([2]; Ringer's solution pH 5.5 at 70° C., 24 H): 0.00%
% Hydroquinone released ([2]; Ringer's solution pH 8.5 at 70° C., 24 H): 0.00%
% Hydroquinone released ([2]; Synthetic perspiration at RT, 48 H): 0.00%
% Hydroquinone released ([2]; Water at room temperature, 14 Days): 0.00%
Hydroquinone release ([2]; whatever the tested conditions): never released
OD at 490 nm (human tyrosinase; time 0 min): 0.0000
OD at 490 nm (human tyrosinase; time 1 min): 0.0095
OD at 490 nm (human tyrosinase; time 2 min): 0.0190
OD at 490 nm (human tyrosinase; time 3 min): 0.0295
OD at 490 nm (human tyrosinase; time 4 min): 0.0400
OD at 490 nm (human tyrosinase; time 5 min): 0.0505
OD at 490 nm (human tyrosinase; time 6 min): 0.0610
OD at 490 nm (human tyrosinase; time 7 min): 0.0715
OD at 490 nm (human tyrosinase; time 8 min): 0.0825
OD at 490 nm (human tyrosinase; time 9 min): 0.0925
OD at 490 nm (human tyrosinase; time 10 min): 0.1035
OD at 490 nm (human tyrosinase; time 11 min): 0.1135
OD at 490 nm (human tyrosinase; time 12 min): 0.1245
OD at 490 nm (human tyrosinase; time 13 min): 0.1355
OD at 490 nm (human tyrosinase; time 14 min): 0.1465
OD at 490 nm (human tyrosinase; time 15 min): 0.1575
OD at 490 nm (human tyrosinase; time 16 min): 0.1685
OD at 490 nm (human tyrosinase; time 17 min): 0.1790
OD at 490 nm (human tyrosinase; time 18 min): 0.1900
OD at 490 nm (human tyrosinase; time 19 min): 0.2010
OD at 490 nm (human tyrosinase; time 20 min): 0.2120
Inhibitor efficacy (%) (human tyrosinase; Compound at 1.12 mM, T = 20 min): 13.5%
Structure (SMILES): Oc1ccc(OC2CCCCC2(F)F)cc1 (racemic) [Compound 11]
